Marks after values point to notes of the source that are not given here.
How the values were obtained:
ICR mice = assay: in vivo; conditions: female ICR mice; single-dose ip
Experimental: This experiment was to investigate the toxic effects of single-dose intraperitoneal administration on ICR mice and determine the maximum tolerated dose (MTD) of each subject. Maximum tolerated dose (MTD) refers to the dose that may not cause an animal to die, may not cause the animal to suffer weight loss exceeding 10% (compared with Day 0), or may not produce significant side effects.
The corresponding amount of test substance was taken in a 5 mL glass tube and dissolved in ethanol with a 5 mm magnetic stirrer for stirring. After dissolving completely, Cremophor EL was added with continuous stirring. The marked amount of saline was added and mixed evenly before use. The volume ratio of ethanol, Cremophor EL, and physiological saline was 5:5:90.
Varieties and lines: ICR mice; level: SPF; sex: female.
Method of administration: ip. The dose was reduced in case of animal death, till an animal survived; the dose was increased in case of no animal death; the test was ended when the animals survived normally at the given high dose. Finally, the MTD of the mice on the test substances was determined according to the test results. The animals were observed continuously for 7 days after acute administration.
During the experiment, all animals were under detailed and continuous clinical observation for […], twice a day (10:00 am, 16:00 pm) after administration. The observation included but not limited to: skin, hair, ear, nose, mouth, chest, abdomen, external genitalia, limbs and feet, respiratory and circulatory system, autonomic effects (such as salivation), nervous system (such as tremor, convulsions, stress response and abnormal behavior).
The body of animals was weighed before administration, and then weighed and recorded at the same time each day.
The observation results, animal body weight, and animal survival after one week of administration were recorded in detail every day.

[1] = system: HCT-116 colon cancer xenografts; assay: Tumor growth inhibition of HCT-116 colon cancer xenografts in tumor-bearing nude mice (tumor volume, TGI %, RTV, T/C %); type: in vivo, Balb/c Nude mice; conditions: for T/C % (relative tumor proliferation rate): single-dose intraperitoneal, dosage mg/kg: G3, G4, G8 350, G5, G9 325, G6 300, G7 250;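 on T/C % (relative tumor proliferation rate): control C is the vehicle-treated model control group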
Summary of the method: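 Tumors in HCT-116-inoculated nude mice were sized three times weekly by diameter, with volume V=3/4π(D/2)^3. Significance set at P<0.05.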

[2] = Summary of the method: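 Test compounds formulated in ethanol:Cremophor EL:saline (5:5:90), vehicle alone as control, in HCT-116 subcutaneous xenografts in female Balb/c nudes (6/group, start 60–150 mm^3). Weight measured three times weekly, tumour weight at end; unpaired t-test on Mean±SEM data.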
[3] = Day 0, G3-G9 groups, single IP dose, Mean±SEM
[4] = Day 4, G3-G9 groups, single IP dose, Mean±SEM
[5] = Day 6, G3-G9 groups, single IP dose, Mean±SEM
[6] = Day 8, G3-G9 groups, single IP dose, Mean±SEM
[7] = Day 11, G3-G9 groups, single IP dose, Mean±SEM
[8] = Day 13, G3-G9 groups, single IP dose, Mean±SEM
[9] = Day 15, G3-G9 groups, single IP dose, Mean±SEM
[10] = Day 18, G3-G9 groups, single IP dose, Mean±SEM
[11] = Day 20, G3-G9 groups, single IP dose, Mean±SEM
[12] = Day 22, G3-G9 groups, single IP dose, Mean±SEM

SMILES: CCCCOC(=O)Nc1nc(=O)n([C@@H]2O[C@H](CO)[C@@H](O)C2(F)F)cc1Br [Compound G6, 5-Br-4-N-(n-butoxycarbonyl)-2′-deoxy-2′,2′-difluorocytidine]
- dose that could be tolerated (maximum tolerated dose, MTD) (ICR mice): 200 mg/kg
- Day 0 (RTV) [1, 3]: 1.00 ± 0.00
- Tumor volume, Day 0 [1, 3]: 80.31 ± 24.42* mm^3
- T/C % (relative tumor proliferation rate) ([1]; Day 0): 0.09%
- Day 4 (TGI %) ([1]; Day 4, G3-G9 groups, single IP dose): 82.09%
- Day 4 (RTV) [1, 4]: 1.42 ± 0.00
- Tumor volume, Day 4 [1, 4]: 47.71 ± 0.00 mm^3
- T/C % (relative tumor proliferation rate) ([1]; Day 4): 75.54%
- Day 6 (TGI %) ([1]; Day 6, G3-G9 groups, single IP dose): 84.52%
- Day 6 (RTV) [1, 5]: 1.95 ± 0.00
- Tumor volume, Day 6 [1, 5]: 65.45 ± 0.00 mm^3
- T/C % (relative tumor proliferation rate) ([1]; Day 6): 64.68%
- Day 8 (TGI %) ([1]; Day 8, G3-G9 groups, single IP dose): 78.47%
- Day 8 (RTV) [1, 6]: 3.38 ± 0.00
- Tumor volume, Day 8 [1, 6]: 113.10 ± 0.00 mm^3
- T/C % (relative tumor proliferation rate) ([1]; Day 8): 89.68%
- Day 11 (TGI %) ([1]; Day 11, G3-G9 groups, single IP dose): 72.53%
- Day 11 (RTV) [1, 7]: 6.59 ± 0.00
- Tumor volume, Day 11 [1, 7]: 220.89 ± 0.00 mm^3
- T/C % (relative tumor proliferation rate) ([1]; Day 11): 110.90%
- Day 13 (TGI %) ([1]; Day 13, G3-G9 groups, single IP dose): 67.12%
- Day 13 (RTV) [1, 8]: 11.39 ± 0.00
- Tumor volume, Day 13 [1, 8]: 381.70 ± 0.00 mm^3
- T/C % (relative tumor proliferation rate) ([1]; Day 13): 132.45%
- Day 15 (TGI %) ([1]; Day 15, G3-G9 groups, single IP dose): 50.67%
- Day 15 (RTV) [1, 9]: 20.80 ± 0.00
- Tumor volume, Day 15 [1, 9]: 696.91 ± 0.00 mm^3
- T/C % (relative tumor proliferation rate) ([1]; Day 15): 198.59%
- Day 18 (TGI %) ([1]; Day 18, G3-G9 groups, single IP dose): 22.38%
- Day 18 (RTV) [1, 10]: 42.88 ± 0.00
- Tumor volume, Day 18 [1, 10]: 1436.76 ± 0.00 mm^3
- T/C % (relative tumor proliferation rate) ([1]; Day 18): 311.29%
- Day 20 (TGI %) ([1]; Day 20, G3-G9 groups, single IP dose): 16.62%
- Day 20 (RTV) [1, 11]: 52.73 ± 0.00
- Tumor volume, Day 20 [1, 11]: 1767.15 ± 0.00 mm^3
- T/C % (relative tumor proliferation rate) ([1]; Day 20): 332.56%
- Day 22 (TGI %) ([1]; Day 22, G3-G9 groups, single IP dose): 18.00%
- Day 22 (RTV) [1, 12]: 64.00 ± 0.00
- Tumor volume, Day 22 [1, 12]: 2144.66 ± 0.00 mm^3
- T/C % (relative tumor proliferation rate) ([1]; Day 22): 329.10%
- Weight change rate, Day 0 [2, 3]: 0.00 ± 0.00%
- Weight of mice, Day 0 [2, 3]: 21.47 ± 0.65 g
- Weight change rate, Day 4 [2, 4]: 0.00 ± 0.00%
- Weight of mice, Day 4 [2, 4]: 19.30 ± 0.00 g
- animals died on Day 4 after administration ([2]; Day 4, G4 350 mg/kg, G8 350 mg/kg, G6 300 mg/kg, single IP, 6 mice a group): Five
- Weight change rate, Day 6 [2, 5]: 0.52 ± 0.00%
- Weight of mice, Day 6 [2, 5]: 19.40 ± 0.00 g
- Weight change rate, Day 8 [2, 6]: 1.55 ± 0.00%
- Weight of mice, Day 8 [2, 6]: 19.60 ± 0.00 g
- Weight change rate, Day 11 [2, 7]: 6.22 ± 0.00%
- Weight of mice, Day 11 [2, 7]: 20.50 ± 0.00 g
- Weight change rate, Day 13 [2, 8]: 7.77 ± 0.00%
- Weight of mice, Day 13 [2, 8]: 20.80 ± 0.00 g
- Weight change rate, Day 15 [2, 9]: 8.29 ± 0.00%
- Weight of mice, Day 15 [2, 9]: 20.90 ± 0.00 g
- Weight change rate, Day 18 [2, 10]: 5.18 ± 0.00%
- Weight of mice, Day 18 [2, 10]: 20.30 ± 0.00 g
- Weight change rate, Day 20 [2, 11]: 4.66 ± 0.00%
- Weight of mice, Day 20 [2, 11]: 20.20 ± 0.00 g
- Weight change rate, Day 22 [2, 12]: 6.22 ± 0.00%
- Weight of mice, Day 22 [2, 12]: 20.50 ± 0.00 g
- Day 22 Mortality ([2]; Day 22, single IP dose (mg/kg)): 83%
